{
  "source": "patent US7413837B2",
  "about": "“Charge control agent and toner for electrostatic image development containing the same” (Orient Chemical Industries, Ltd., priority 2002, dated 2008)",
  "assay": "confirmatory test of the sublimation",
  "type": "physicochemical",
  "details": "100 mg compound mixed with 2 g resin of acid value 19 mg KOH/g in crucible, heated at 190 degrees centigrade for 1 hour",
  "method": "Subsequently, the confirmatory test of the sublimation of the monoazo compound was performed. 100 mg of the monoazo compound and 2 g of the resin having 19 mg KOH/g of the acid value were added into a 25 mL crucible, and mixed. A filter paper was put on the crucible. After the bottom of crucible was heated at 190 degrees centigrade for 1 hour, an under side of the filter paper was observed.\nSubsequently, the confirmatory test of the sublimation of the monoazo metals-compound was performed. 100 mg of the metals-compound and 2 g of the resin having 19 mg KOH/g of the acid value are added and mixed into a 25 mL crucible. A filter paper was put on the crucible. After the bottom of the crucible was heated at 190 degrees centigrade for 1 hour, the under side of the filter paper was observed.",
  "data": [
    {"smiles": "COC(=O)Nc1cccc2ccc(O)c(N=Nc3cc(Cl)ccc3O)c12", "note": "[I-1]", "values": [
      {"measurement": "sublimation property (accretions of sublimates on under side of filter paper)", "value": "no sublimation property"}
    ]}
  ]
}
